Laboratory results taken from ChEMBL document CHEMBL4118277, “Selective inhibition of monoamine oxidase A by chelerythrine, an isoquinoline alkaloid” (Bioorg Med Chem Lett, 2018).

What was measured:
[1] = biological target: T1, Amine oxidase [flavin-containing] B (Homo sapiens, UniProt P27338); test: Inhibition of recombinant human MAO-B assessed as residual activity at 20 uM using benzylamine as substrate incubated for 30 mins by spectrophotometric method relative to control; settings: 0.5 h, read-out: Activity
T1 sequence (P27338 whole entry): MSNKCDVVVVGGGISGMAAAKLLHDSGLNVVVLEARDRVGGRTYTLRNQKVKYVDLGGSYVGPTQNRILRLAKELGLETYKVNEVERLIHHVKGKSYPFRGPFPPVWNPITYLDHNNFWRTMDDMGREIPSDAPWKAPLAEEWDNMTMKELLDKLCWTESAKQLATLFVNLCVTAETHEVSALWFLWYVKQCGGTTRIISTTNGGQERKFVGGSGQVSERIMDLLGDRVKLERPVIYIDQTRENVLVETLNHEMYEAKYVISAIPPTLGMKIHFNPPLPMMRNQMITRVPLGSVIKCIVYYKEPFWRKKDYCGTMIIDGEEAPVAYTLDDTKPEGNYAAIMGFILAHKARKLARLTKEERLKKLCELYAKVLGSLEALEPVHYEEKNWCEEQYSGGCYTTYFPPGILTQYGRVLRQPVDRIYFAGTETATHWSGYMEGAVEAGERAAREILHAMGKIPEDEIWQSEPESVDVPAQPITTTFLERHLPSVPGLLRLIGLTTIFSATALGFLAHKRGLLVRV

[2] = biological target: T1, Amine oxidase [flavin-containing] B; test: Inhibition of recombinant human MAO-B using benzylamine as substrate incubated for 30 mins by spectrophotometric method
[3] = biological target: T2, Amine oxidase [flavin-containing] A (Homo sapiens, UniProt P21397); test: Inhibition of recombinant human MAO-A assessed as residual activity at 20 uM using kynuramine as substrate incubated for 20 mins by spectrophotometric method relative to control; settings: read-out: Activity
T2 sequence (P21397 whole entry): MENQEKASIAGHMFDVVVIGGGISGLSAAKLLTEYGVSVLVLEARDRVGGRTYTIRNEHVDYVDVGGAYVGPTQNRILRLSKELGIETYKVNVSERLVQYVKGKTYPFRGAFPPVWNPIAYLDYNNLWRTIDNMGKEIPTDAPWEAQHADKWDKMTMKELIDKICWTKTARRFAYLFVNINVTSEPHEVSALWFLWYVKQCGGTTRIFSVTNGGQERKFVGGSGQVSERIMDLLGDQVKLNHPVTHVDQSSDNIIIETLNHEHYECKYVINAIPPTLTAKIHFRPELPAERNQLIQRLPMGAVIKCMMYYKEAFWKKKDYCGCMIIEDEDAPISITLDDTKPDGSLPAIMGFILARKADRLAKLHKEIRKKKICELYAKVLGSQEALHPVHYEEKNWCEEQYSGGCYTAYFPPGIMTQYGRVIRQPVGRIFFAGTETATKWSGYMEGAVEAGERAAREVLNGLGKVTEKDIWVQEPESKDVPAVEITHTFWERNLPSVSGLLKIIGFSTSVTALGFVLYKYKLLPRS

[4] = biological target: T2, Amine oxidase [flavin-containing] A; test: Inhibition of recombinant human MAO-A using kynuramine as substrate incubated for 20 mins by spectrophotometric method
Homo sapiens = organism: Homo sapiens; test: Selectivity index, ratio of IC50 for recombinant human MAO-B to IC50 for recombinant human MAO-A
[5] = biological target: T2, Amine oxidase [flavin-containing] A; test: Inhibition of recombinant human MAO-A using kynuramine as substrate by spectrophotometric method; settings: TDE = time-dependent effect
[6] = biological target: T2, Amine oxidase [flavin-containing] A; test: Reversible inhibition of recombinant human MAO-A assessed as residual activity at 1.1 uM using kynuramine as substrate preincubated for 30 mins followed by dialysis for 6 hrs by spectrophotometric method relative to control; settings: read-out: Activity
[7] = biological target: T2, Amine oxidase [flavin-containing] A; test: Competitive inhibition of recombinant human MAO-A using kynuramine as substrate by Lineweaver-Burk plot analysis
[8] = biological target: T2, Amine oxidase [flavin-containing] A; test: Inhibition of recombinant human MAO-A assessed as residual activity at 1.1 uM using kynuramine as substrate after 30 mins by spectrophotometric method relative to control; settings: 0.5 h, read-out: Activity
[9] = biological target: T2, Amine oxidase [flavin-containing] A; test: Inhibition of recombinant human MAO-A expressed in baculovirus infected insect cells using aminoproplyether of luciferin methyl ester as substrate after 90 mins by chemiluminescence assay

SMILES	activity at 20 µM [1]	IC50 [2]	activity at 20 µM [3]	IC50 [4]	other results
COc1cc2c(cc1O)[C@H]1Cc3ccc(OC)c(OC)c3CN1CC2	91.4%	> 20 µM	93.4%	> 20 µM	–
CN1Cc2c(ccc3c2OCO3)[C@@]2(C)[C@@H](O)Cc3cc4c(cc3[C@@H]12)OCO4	87.6%	> 20 µM	87.9%	> 20 µM	–
COc1cc2c(cc1OC)[C@@H]1[C@H](C)c3ccc(OC)c(OC)c3CN1CC2	54.7%	24.1 µM	79.5%	> 20 µM	–
COc1cc2c(cc1OC)[C@@H]1Cc3ccc(O)c(OC)c3CN1CC2	92.8%	> 20 µM	85.6%	> 20 µM	–
COc1ccc(-c2cc(=O)c3c(O)cc(O)cc3o2)cc1	–	–	–	–	Ratio IC50 (Homo sapiens): 0.89
O=C1/C(=C/c2ccc(O)cc2)Oc2cc(O)ccc21	–	–	–	–	Ratio IC50 (Homo sapiens): 9.4
COc1ccc2c(c[n+](C)c3c4cc5c(cc4ccc23)OCO5)c1OC [CHELERYTHRINE]	94.3%	> 20 µM	28.3%	0.55 µM	inhibition (INH) [5]: Tde; activity at 1.1 µM [6]: 75%; Ratio IC50 (Homo sapiens): > 36.4; Ki [7]: 0.22 µM; activity at 1.1 µM [8]: 28.5%
C#CCN(C)CCCOc1ccc(Cl)cc1Cl [CLORGILINE]	–	–	–	–	activity at 1.1 µM [6]: 18.3%; activity at 1.1 µM [8]: 17.3%
COc1cc(-c2[o+]c3cc(O)cc(O)c3cc2O)cc(OC)c1O [MALVIDIN CHLORIDE]	–	–	–	–	IC50 [9]: 22.1 µM
COc1cc2c(cc1OC)-c1c(OC)c(OC)cc3ccnc(c13)C2=O [OXOGLAUCINE]	64.9%	> 20 µM	89.7%	> 20 µM	–
Cc1cccc(N2CC(CO)OC2=O)c1 (stereo unspecified) [TOLOXATONE]	–	–	–	–	activity at 1.1 µM [6]: 75.4%; activity at 1.1 µM [8]: 30.7%
